The results in this text go back to patent US11987559B1, “1-(4-bromobenzylideneamino)-5-phenylimidazolidine-2,4-dione as an antimicrobial compound” (KING FAISAL UNIVERSITY, priority 2023, dated 2024).

What all share (format): cell-based
The test system of test [1] is Chrysosporium keratinophilum. Description: agar plate disc-diffusion, antifungal inhibition zone. As to conditions: Sabouraud's dextrose agar, 72 hours. On the procedure:
(§1) The agar plate disc-diffusion method was applied. […] The discs were then placed onto the surface of agar plates (nutrient agar for bacteria and Sabouraud's dextrose agar for fungi) seeded with the test organism. Each plate contained 15 mL of the agar medium, previously seeded with 0.2 mL of the broth culture of each organism pregrown for 18 hours. The plates were incubated at 37° C. for 48 hours, and 72 hours for fungi. The inhibition zones were measured in millimeters (mm). Discs impregnated with DMSO were used as a control, and its inhibition zone was subtracted from the tested compound's actual inhibition zone.
On the technique in general: In agar diffusion tests the substance spreads into inoculated agar from a disc or well.

In another test the test system is Aspergillus flavus. The test is described as above. As to conditions: Sabouraud's dextrose agar, 72 hours. Here is the method:
as §1

Another test has as its system Bacillus cereus. As to the kind of experiment: agar plate disc-diffusion, antibacterial inhibition zone. Particulars: nutrient agar, 37° C., 48 hours. Here is the method: as §1
A further test deals with Escherichia coli. The test is described as above. As to conditions: nutrient agar, 37° C., 48 hours. On the procedure:
as §1

For the next test, the system named is Pseudomonas aeruginosa. The description is as above. Particulars: nutrient agar, 37° C., 48 hours. On the procedure:
as §1

In another test the test system is Staphylococcus aureus. The test is described as above. As to conditions: nutrient agar, 37° C., 48 hours. On the procedure:
as §1

A further test has as its system different microbes. As to the kind of experiment: antimicrobial testing, overall statement. As to conditions: result in words; bacteria and fungi of tables 1, 2. Here is the method: The agar plate disc-diffusion method was applied. Sterilized filter papers (6 mm in diameter) were wetted with 10 μL of a solution of 1-(4-bromobenzylideneamino)-5-phenylimidazolidine-2,4-dione (4) to be tested, containing 10 mg/mL in DMSO, and the discs were allowed to air dry. The discs were then placed onto the surface of agar plates (nutrient agar for bacteria and Sabouraud's dextrose agar for fungi) seeded with the test organism. Each plate contained 15 mL of the agar medium, previously seeded with 0.2 mL of the broth culture of each organism pregrown for 18 hours. The plates were incubated at 37° C. for 48 hours, and 72 hours for fungi. The inhibition zones were measured in millimeters (mm). Discs impregnated with DMSO were used as a control, and its inhibition zone was subtracted from the tested compound's actual inhibition zone.

Where [2] appears, read: A = concentration of comp. = 10,000 μL.
[3] abbreviates: B = concentration of comp. = 30.000 μL.
[4] abbreviates: C = concentration of comp. = 50,000 μL.

The structures appear in SMILES notation.

On to `O=C(O)c1cn(C2CC2)c2cc(N3CCNCC3)c(F)cc2c1=O` [Cip., reference compound], for which the inhibition zone is 29 mm in test [1] (setting [2]); 30 mm in test [1] (setting [3]); 53 mm in test [1] (setting [4]); 29 mm with Aspergillus flavus (setting [2]); 30 mm with Aspergillus flavus (setting [3]); 42 mm with Aspergillus flavus (setting [4]). The inhibition zone with Bacillus cereus (setting [2]) is recorded as 29 mm; in the test with Bacillus cereus (setting [3]), 30 mm; in the test with Bacillus cereus (setting [4]), 42 mm; in the test with Escherichia coli (setting [2]), 30 mm; with Escherichia coli (setting [3]), 39 mm; in the test with Escherichia coli (setting [4]), 60 mm. The inhibition zone is 29 mm in the test with Pseudomonas aeruginosa (setting [2]); 30 mm in the test with Pseudomonas aeruginosa (setting [3]); 53 mm in the test with Pseudomonas aeruginosa (setting [4]); 43 mm in the test with Staphylococcus aureus (setting [2]); 44 mm with Staphylococcus aureus (setting [3]); 53 mm in the test on Staphylococcus aureus (setting [4]).
Take `O=C1NC(=O)N(/N=C/c2ccc(Br)cc2)C1c1ccccc1` (stereo not shown) [Compound 4, 1-(4-bromobenzylideneamino)-5-phenylimidazolidine-2,4-dione]: the inhibition zone in test [1] (setting [2]) is listed as 26 mm; in test [1] (setting [3]), 29 mm; in test [1] (setting [4]), 45 mm; with Aspergillus flavus (setting [2]), 19 mm; with Aspergillus flavus (setting [3]) it was 24 mm; in the test with Aspergillus flavus (setting [4]) it was 35 mm. The inhibition zone in the test on Bacillus cereus (setting [2]) turned out to be 27 mm; in the test with Bacillus cereus (setting [3]) it was 29 mm; with Bacillus cereus (setting [4]) it was 28 mm; in the test with Escherichia coli (setting [2]), 24 mm; in the test on Escherichia coli (setting [3]) it was 30 mm; in the test on Escherichia coli (setting [4]), 48 mm. In addition, the inhibition zone with Pseudomonas aeruginosa (setting [2]) stood at 23 mm; in the test on Pseudomonas aeruginosa (setting [3]) it was 27 mm; with Pseudomonas aeruginosa (setting [4]), 34 mm; in the test with Staphylococcus aureus (setting [2]), 15 mm; with Staphylococcus aureus (setting [3]) it was 23 mm; in the test on Staphylococcus aureus (setting [4]) it was 26 mm. Also, the “antimicrobials activities against different microbes” value in the test with different microbes is given as “excellent”.
